Measured values: patent US10689391B2, “Isoxazole analogs as FXR agonists and methods of use thereof” (Enanta Pharmaceuticals, Inc., priority 2017, dated 2020)

Target: T1, human FXR (NR1H4) (Homo sapiens, UniProt Q96RI1)
T1 construct: host or cells: CHO (Chinese hamster ovary) reporter cells
T1 sequence (Q96RI1 1-486): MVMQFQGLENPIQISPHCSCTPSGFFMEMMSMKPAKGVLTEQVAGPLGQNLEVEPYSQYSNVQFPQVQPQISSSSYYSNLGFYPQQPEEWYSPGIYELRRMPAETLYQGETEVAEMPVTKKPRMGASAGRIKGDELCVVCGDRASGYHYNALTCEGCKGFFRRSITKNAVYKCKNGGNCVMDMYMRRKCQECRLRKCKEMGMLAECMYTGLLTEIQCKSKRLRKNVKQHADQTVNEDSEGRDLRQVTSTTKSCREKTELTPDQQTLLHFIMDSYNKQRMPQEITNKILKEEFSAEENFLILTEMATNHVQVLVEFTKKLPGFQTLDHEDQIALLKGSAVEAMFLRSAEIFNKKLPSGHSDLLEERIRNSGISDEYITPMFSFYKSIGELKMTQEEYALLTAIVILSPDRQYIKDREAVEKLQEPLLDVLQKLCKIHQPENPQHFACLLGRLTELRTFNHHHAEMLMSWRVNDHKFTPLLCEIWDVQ
Assay: Human FXR (NR1H4) Assay (Gal4 promoter driven luciferase reporter, Indigo Bioscience kit IB00601); on Efficacy (%): normalized to CDCA set as 100%
Format: cell-based
Conditions: for EC50: CHO reporter cells expressing human NR1H4, luciferase, 22 hours incubation, potency ranges; for Emax: read-out: Efficacy (%)
Excerpt: Human FXR (NR1H4) Assay Determination of a ligand mediated Gal4 promoter driven transactivation to quantify ligand binding mediated activation of FXR. FXR Reporter Assay kit purchased from Indigo Bioscience (Catalogue number: IB00601) to determine the potency and efficacy of compound developed by Enanta that can induce FXR activation. The principle application of this reporter assay system is to quantify functional activity of human FXR. The assay utilizes non-human mammalian cells, CHO (Chinese hamster ovary) cells engineered to express human NR1H4 protein (referred to as FXR). Reporter cells also incorporate the cDNA encoding beetle luciferase which catalyzes the substrates and yields photon emission. Luminescence intensity of the reaction is quantified using a plate-reading luminometer, Envision. Reporter Cells include the luciferase reporter gene functionally linked to an FXR responsive promoter. Thus, quantifying changes in luciferase expression in the treated reporter cells provides a sensitive surrogate measure of the changes in FXR activity. […] The assay is according to the manufacturer's instructions. […] Retrieve Reporter Cells from −80° C. storage. Perform a rapid thaw of the frozen cells by transferring a 10 ml volume of 37° C. cell recovery medium into the tube of frozen cells. Recap the tube of Reporter Cells and immediately place it in a 37° C. water bath for 5-10 minutes. Retrieve the tube of Reporter Cell Suspension from the water bath. Sanitize the outside surface of the tube with a 70% alcohol swab, and then transfer it into the cell culture hood. Dispense 90 μl of cell suspension into each well of the 96-well Assay Plate. Transfer the plate into 37° C. incubator, allowing the cells adherent to the bottom of the well. Dilute compounds in Dilution Plate (DP), and administrate to cells at Assay Plate (AP). DMSO content of the samples was kept at 0.2%. Cells were incubated for additional 22 hours before luciferase activities were measured. Thirty minutes before intending to quantify FXR activity, remove Detection Substrate and Detection Buffer from the refrigerator and place them in a low-light area so that they may equilibrate to room temperature. Remove the plate's lid and discard all media contents by ejecting it into an appropriate waste container. Gently tap the inverted plate onto a clean absorbent paper towel to remove residual droplets. Cells will remain tightly adhered to well bottoms. Add 100 μl of luciferase detection reagent to each well of the assay plate. Allow the assay plate to rest at room temperature for at least 5 minutes following the addition of LDR. Set the instrument (Envision) to perform a single 5 second “plate shake” prior to reading the first assay well. Read time may be 0.5 second (500 mSec) per well.

Row | EC50 | Emax | Structure (SMILES)
1 | 200 to 1000 nM | 33.5% | CC(C)Oc1cc(C(=O)NS(=O)(=O)C2CC2)cc2sc(O[C@@H]3CO[C@H]4[C@@H]3OC[C@@H]4OCc3c(-c4c(Cl)cccc4Cl)noc3C3CC3)nc12 [Example 3, 2-(((3R,3aR,6S,6aR)-6-((5-cyclopropyl-3-(2,6-dichlorophenyl)isoxazol-4-yl)methoxy)hexahydrofuro[3,2-b]furan-3-yl)oxy)-N-(cyclopropylsulfonyl)-4-isopropoxybenzo[d]thiazole-6-carboxamide]
2 | 200 to 1000 nM | 40% | O=C(O)c1ccc2nc(O[C@@H]3CO[C@H]4[C@@H]3OC[C@@H]4OCc3c(-c4c(Cl)cccc4Cl)noc3C3CC3)sc2c1 [Example 4, 2-(((3R,3aR,6S,6aR)-6-((5-cyclopropyl-3-(2,6-dichlorophenyl)isoxazol-4-yl)methoxy)hexahydrofuro[3,2-b]furan-3-yl)oxy)benzo[d]thiazole-6-carboxylic acid]
3 | 30 to 200 nM | 55% | O=C(O)c1cc(F)c2nc(O[C@@H]3CO[C@H]4[C@@H]3OC[C@H]4OCc3c(-c4c(Cl)cccc4Cl)noc3C3CC3)sc2c1 [Example 5, 2-(((3R,3aR,6R,6aR)-6-((5-cyclopropyl-3-(2,6-dichlorophenyl)isoxazol-4-yl)methoxy)hexahydrofuro[3,2-b]furan-3-yl)oxy)-4-fluorobenzo[d]thiazole-6-carboxylic acid]
4 | 30 to 200 nM | 56% | O=C(O)c1cc(F)c2nc(O[C@@H]3CO[C@H]4[C@@H]3OC[C@H]4OCc3c(-c4ccccc4OC(F)(F)F)noc3C3CC3)sc2c1 [Example 6]
5 | 200 to 1000 nM | 20% | CC1(S(=O)(=O)NC(=O)c2ccc3nc(O[C@@H]4CO[C@H]5[C@@H]4OC[C@H]5OCc4c(-c5c(Cl)cccc5Cl)noc4C4CC4)sc3c2)CC1 [Example 8, 2-(((3R,3aR,6R,6aR)-6-((5-cyclopropyl-3-(2,6-dichlorophenyl)isoxazol-4-yl)methoxy)hexa hydrofuro[3,2-b]furan-3-yl)oxy)-N-((1-methylcyclopropyl)sulfonyl)benzo-[d]thiazole-6-carboxamide]
6 | 200 to 1000 nM | 5.5% | O=C(NS(=O)(=O)C1CC1)c1ccc2nc(O[C@@H]3CO[C@H]4[C@@H]3OC[C@H]4OCc3c(-c4c(Cl)cccc4Cl)noc3C3CC3)sc2c1 [Example 9]
7 | < 30 nM | 103% | CC(C)Oc1cc(C(=O)NS(=O)(=O)N2CCCC2)cc2sc(O[C@@H]3CO[C@H]4[C@@H]3OC[C@H]4OCc3c(-c4c(Cl)cccc4Cl)noc3C3CC3)nc12 [Example 10]
8 | 30 to 200 nM | 57% | CC(C)Oc1cc(C(=O)NS(=O)(=O)C2CC2)cc2sc(O[C@@H]3CO[C@H]4[C@@H]3OC[C@H]4OCc3c(-c4c(Cl)cccc4Cl)noc3C3CC3)nc12 [Example 11]
9 | 30 to 200 nM | 70% | CC(C)Oc1cc(C(=O)NS(=O)(=O)C2(C)CC2)cc2sc(O[C@@H]3CO[C@H]4[C@@H]3OC[C@H]4OCc3c(-c4c(Cl)cccc4Cl)noc3C3CC3)nc12 [Example 12]
10 | < 30 nM | 96.5% | CC(C)Oc1cc(C(=O)NS(=O)(=O)N2CCCCC2)cc2sc(O[C@@H]3CO[C@H]4[C@@H]3OC[C@H]4OCc3c(-c4c(Cl)cccc4Cl)noc3C3CC3)nc12 [Example 13]
11 | 30 to 200 nM | 67.5% | O=C(O)c1ccc2nc(O[C@@H]3CO[C@H]4[C@@H]3OC[C@H]4OCc3c(-c4c(Cl)cccc4Cl)noc3C3CC3)sc2c1 [Example 14]
12 | 30 to 200 nM | 85% | O=C(O)c1ccc2nc(O[C@@H]3CO[C@H]4[C@@H]3OC[C@H]4OCc3c(-c4c(Cl)cccc4Cl)noc3C3CC3)ccc2c1 [Example 16]
13 | > 1000 nM | 9% | CC(C)Oc1cc(C(=O)O)cc2sc([C@@]3(O)CO[C@@H]4[C@H](OCc5c(-c6c(Cl)cccc6Cl)noc5C5CC5)CO[C@@H]43)nc12 [Example 17]
14 | 200 to 1000 nM | 45% | CC(C)Oc1cc(C(=O)O)cc2sc([C@]3(F)CO[C@@H]4[C@H](OCc5c(-c6c(Cl)cccc6Cl)noc5C5CC5)CO[C@@H]43)nc12 [Example 18]
15 | 200 to 1000 nM | 82.3% | CC(C)Oc1cc(C(=O)O)cc2sc(N[C@@H]3CO[C@H]4[C@@H]3OC[C@H]4OCc3c(-c4c(Cl)cccc4Cl)noc3C3CC3)nc12 [Example 19]
16 | 200 to 1000 nM | 44% | CC(C)Oc1cc(C(=O)O)cc2sc(N3CCN4C[C@@H](OCc5c(-c6c(Cl)cccc6Cl)noc5C5CC5)C[C@@H]4C3)nc12 [Example 20, 2-((7S,8aR)-7-((5-cyclopropyl-3-(2,6-dichlorophenyl)isoxazol-4-yl)methoxy)hexahydropyrrolo[1,2-a]pyrazin-2(1H)-yl)-4-isopropoxybenzo[d]thiazole-6-carboxylic acid]
17 | 30 to 200 nM | 72% | CC(C)Oc1cc(C(=O)O)cc2sc(N3CCN4C[C@H](OCc5c(-c6c(Cl)cccc6Cl)noc5C5CC5)C[C@H]4C3)nc12 [Example 21]
18 | 30 to 200 nM | 82% | CC(C)Oc1cc(C(=O)O)cc2sc(N3CCN4C[C@H](OCc5c(-c6c(Cl)cccc6Cl)noc5C5CC5)C[C@@H]4C3)nc12 [Example 22, 2-((7R,8aR)-7-((5-cyclopropyl-3-(2,6-dichlorophenyl)isoxazol-4-yl)methoxy)hexahydropyrrolo[1,2-a]pyrazin-2(1H)-yl)-4-isopropoxybenzo[d]thiazole-6-carboxylic acid]
19 | < 30 nM | 103% | CC(C)Oc1cc(C(=O)O)cc2sc(O[C@@H]3CO[C@H]4[C@@H]3OC[C@H]4OCc3c(-c4ccccc4OC(F)(F)F)noc3C3CC3)nc12 [Example 23]
20 | 30 to 200 nM | 78% | CC(C)Oc1cc(C(=O)NS(=O)(=O)C2(C)CC2)cc2sc(O[C@@H]3CO[C@H]4[C@@H]3OC[C@H]4OCc3c(-c4ccccc4OC(F)(F)F)noc3C3CC3)nc12 [Example 24]
21 | 30 to 200 nM | 66% | CC(C)Oc1cc(C(=O)NS(=O)(=O)C2CC2)cc2sc(O[C@@H]3CO[C@H]4[C@@H]3OC[C@H]4OCc3c(-c4ccccc4OC(F)(F)F)noc3C3CC3)nc12 [Example 25]
22 | 200 to 1000 nM | 7% | CC(C)Oc1cc(C(=O)O)cc2sc(N3C[C@H]4[C@@H](OCc5c(-c6c(Cl)cccc6Cl)noc5C5CC5)CO[C@H]4C3)nc12 [Example 26]
23 | 200 to 1000 nM | 57% | CC(C)Oc1cc(C(=O)O)cc2sc(N3C[C@H]4C[C@@H](NCc5c(-c6c(Cl)cccc6Cl)noc5C5CC5)C[C@H]4C3)nc12 [Example 28]
24 | > 1000 nM | 21% | CC(C)Oc1cc(C(=O)O)cc2sc(N3CCN4C(=O)[C@@H](OCc5c(-c6c(Cl)cccc6Cl)noc5C5CC5)C[C@@H]4C3)nc12 [Example 29]
25 | 30 to 200 nM | 70% | CC(C)Oc1cc(C(=O)O)cc2sc(N3CCN4C(=O)[C@H](OCc5c(-c6c(Cl)cccc6Cl)noc5C5CC5)C[C@H]4C3)nc12 [Example 30]
26 | 30 to 200 nM | 110% | CC(C)Oc1cc(C(=O)O)cc2sc(N3CCN4C(=O)[C@@H](OCc5c(-c6c(Cl)cccc6Cl)noc5C5CC5)C[C@H]4C3)nc12 [Example 31]
